The source of these data is PMC3462168 (Analytical biochemistry, 2010).

Peptide text beside a SMILES is read from it. * marks the point of attachment. 5FAM = O=C1OC2(c3ccc(O)cc3Oc3cc(O)ccc32)c2ccc(C(=O)*)cc21

The target of experiment [1] is T1, hRSV F protein 5-Helix Bundle (5HB) (Human respiratory syncytial virus A, UniProt P03420). Kind of experiment: Competitive FP binding assay. The settings on record: for inhibition at 100 µM: read-out: % Inhibition (100 µM). On the set-up: species or system hRSV strain A2.
The test system of experiment [2] is hRSV. Kind of experiment: Antiviral activity of C20. Particulars: read-out: EC50, antiviral activity; methods only in supporting information. The experiment is classed as cell-based.
For experiment [3], the system named is EBV gH/gL complex. Particulars: 5 nM Fl-C35, increasing amount of EBV gH/gL.
In experiment [4] the target is T1, hRSV F protein 5-Helix Bundle (5HB). Kind of experiment: ELISA of Fl-C35 binding to 5HB. Set-up: species or system hRSV strain A2. Particulars: data in supporting information. A general note: ELISA stands for enzyme-linked immunosorbent assay.
The subject of experiment [5] is hRSV 5HB. Kind of experiment: FP specificity cross-test: EBV gp42 FITC-30mer against hRSV 5HB. The experiment is classed as binding, hRSV strain A2. The settings on record: 5 nM FITC-30mer, wide range of 5HB concentrations.
Experiment [6] relates to EBV gH/gL complex. Particulars: read-out: IC50 of binding to EBV gH/gL protein; cited from earlier work.

For orientation: inhibition means the relative decrease from the control value, in per cent. The term EC50 denotes the concentration at which the effect is half-maximal. As to `CC[C@H](C)[C@H](N)C(=O)N[C@@H](CO)C(=O)N[C@@H](CCC(N)=O)C(=O)N[C@H](C(=O)N[C@@H](CC(N)=O)C(=O)N[C@@H](CCC(=O)O)C(=O)N[C@@H](CCCCN)C(=O)N[C@H](C(=O)N[C@@H](CC(N)=O)C(=O)N[C@@H](CCC(N)=O)C(=O)N[C@@H](CO)C(=O)N[C@@H](CC(C)C)C(=O)N[C@@H](C)C(=O)N[C@@H](Cc1ccccc1)C(=O)N[C@H](C(=O)N[C@@H](CCCNC(=N)N)C(=O)N[C@@H](CCCCN)C(=O)N[C@@H](CO)C(=O)N[C@@H](CC(=O)O)C(=O)N[C@@H](CCC(=O)O)C(=O)O)[C@@H](C)CC)[C@@H](C)CC)C(C)C` [C20] (H-ISQVNEKINQSLAFIRKSDE-OH), in experiment [1], the inhibition at 100 µM was more than 90%. In addition, the EC50 in experiment [2] is more than 12500 nM.
Consider `CC[C@H](C)[C@H](NC(=O)[C@H](Cc1ccccc1)NC(=O)[C@H](C)NC(=O)[C@H](CC(C)C)NC(=O)[C@H](CO)NC(=O)[C@H](CCC(N)=O)NC(=O)[C@H](CC(N)=O)NC(=O)[C@@H](NC(=O)[C@H](CCCCN)NC(=O)[C@H](CCC(=O)O)NC(=O)[C@H](CC(N)=O)NC(=O)[C@@H](NC(=O)[C@H](CCC(N)=O)NC(=O)[C@H](CO)NC(=O)[C@@H](NC(=O)[C@H](CO)NC(=O)[C@H](C)NC(=O)[C@H](CC(=O)O)NC(=O)[C@H](Cc1ccccc1)NC(=O)[C@H](CCC(=O)O)NC(=O)[C@H](CC(=O)O)NC(=O)[C@H](CO)NC(=O)[C@@H]1CCCN1C(=O)[C@H](Cc1ccccc1)NC(=O)[C@@H](N)C(C)C)[C@@H](C)CC)C(C)C)[C@@H](C)CC)C(=O)N[C@@H](CCCNC(=N)N)C(=O)N[C@@H](CCCCN)C(=O)N[C@@H](CO)C(=O)N[C@@H](CC(=O)O)C(=O)N[C@@H](CCC(=O)O)C(=O)O` [C30] (H-VFPSDEFDASISQVNEKINQSLAFIRKSDE-OH), for which the inhibition at 100 µM in experiment [1] was 100%.
`CC[C@H](C)[C@H](NC(=O)[C@H](Cc1ccccc1)NC(=O)[C@H](C)NC(=O)[C@H](CC(C)C)NC(=O)[C@H](CO)NC(=O)[C@H](CCC(N)=O)NC(=O)[C@H](CC(N)=O)NC(=O)[C@@H](NC(=O)[C@H](CCCCN)NC(=O)[C@H](CCC(=O)O)NC(=O)[C@H](CC(N)=O)NC(=O)[C@@H](NC(=O)[C@H](CCC(N)=O)NC(=O)[C@H](CO)NC(=O)[C@@H](NC(=O)[C@H](CO)NC(=O)[C@H](C)NC(=O)[C@H](CC(=O)O)NC(=O)[C@H](Cc1ccccc1)NC(=O)[C@H](CCC(=O)O)NC(=O)[C@H](CC(=O)O)NC(=O)[C@H](CO)NC(=O)[C@@H]1CCCN1C(=O)[C@H](Cc1ccccc1)NC(=O)[C@@H](NC(=O)[C@H](CC(C)C)NC(=O)[C@@H]1CCCN1C(=O)[C@H](CC(=O)O)NC(=O)[C@@H](N)Cc1ccc(O)cc1)C(C)C)[C@@H](C)CC)C(C)C)[C@@H](C)CC)C(=O)N[C@@H](CCCNC(=N)N)C(=O)N[C@@H](CCCCN)C(=O)N[C@@H](CO)C(=O)N[C@@H](CC(=O)O)C(=O)N[C@@H](CCC(=O)O)C(=O)N[C@@H](CC(C)C)C(=O)O` [C35] (H-YDPLVFPSDEFDASISQVNEKINQSLAFIRKSDEL-OH): in experiment [1], the IC50 worked out at 38.5 nM and the inhibition at 100 µM turned out to be 100%.
As to `CC[C@H](C)[C@H](NC(=O)[C@H](Cc1ccccc1)NC(=O)[C@H](C)NC(=O)[C@H](CC(C)C)NC(=O)[C@H](CO)NC(=O)[C@H](CCC(N)=O)NC(=O)[C@H](CC(N)=O)NC(=O)[C@@H](NC(=O)[C@H](CCCCN)NC(=O)[C@H](CCC(=O)O)NC(=O)[C@H](CC(N)=O)NC(=O)[C@@H](NC(=O)[C@H](CCC(N)=O)NC(=O)[C@H](CO)NC(=O)[C@@H](NC(=O)[C@H](CO)NC(=O)[C@H](C)NC(=O)[C@H](CC(=O)O)NC(=O)[C@H](Cc1ccccc1)NC(=O)[C@H](CCC(=O)O)NC(=O)[C@H](CC(=O)O)NC(=O)[C@H](CO)NC(=O)[C@@H]1CCCN1C(=O)[C@H](Cc1ccccc1)NC(=O)[C@@H](NC(=O)[C@H](CC(C)C)NC(=O)[C@@H]1CCCN1C(=O)[C@H](CC(=O)O)NC(=O)[C@H](Cc1ccc(O)cc1)NC(=O)c1ccc2c(c1)C(=O)OC21c2ccc(O)cc2Oc2cc(O)ccc21)C(C)C)[C@@H](C)CC)C(C)C)[C@@H](C)CC)C(=O)N[C@@H](CCCNC(=N)N)C(=O)N[C@@H](CCCCN)C(=O)N[C@@H](CO)C(=O)N[C@@H](CC(=O)O)C(=O)N[C@@H](CCC(=O)O)C(=O)N[C@@H](CC(C)C)C(=O)O` [Fl-C35] (5FAM-YDPLVFPSDEFDASISQVNEKINQSLAFIRKSDEL-OH), the “Binding of Fl-C35 to EBV gH/gL complex (negative control)” value in experiment [3] is on record as “no evidence of nonspecific binding”. The “Specific binding of Fl-C35 to 5HB in ELISA” value in experiment [4] is listed as “confirmed”.
For “KPNVEVWPVAAPPPVAEQEYGDKEVKLPHW [FITC-30mer]”, the “Binding of EBV gp42 FITC-30mer to hRSV 5HB (negative control)” value in experiment [5] was “no evidence of nonspecific binding”. Besides, the IC50 in experiment [6] is 1.3 nM.
